Reference: patent US12485100B2, “Treatment of menstrual cycle-induced symptoms” (Period Pill BV, priority 2019, dated 2025)
Entries after “also recorded” stand apart in the source; their conditions may differ.

Legend:
[1] = animal models, cited from earlier work
[2] = tested on: women with menstrual cycle-induced symptoms (e.g. PMS, PMDD); test: Closed label trials of 3-MMC for menstrual cycle-induced symptoms (case reports of 11 women); assay type: in vivo, human
Text: The following case studies exemplify some aspects of some embodiments of the methods of the present invention for treating perimenstrual disorders in subjects suffering at least one menstrual cycle-induced symptom by administering 3-MMC.
Detailed reports of 11 experiences of women with unlabeled (“pill”) 3-MMC for menstrual cycle-induced symptoms.
Between the second half of 2018 and the first months of 2019, eleven women participated in a blinded trial of 3-MMC (the “pill”) administered to alleviate their menstrual cycle-induced symptoms. The subjects tried different doses ranging from 12.5 mg. up to 50 mg.
Each one of the women used the 3-MMC for relief for at least two to three consecutive menstrual periods, with the number of trials varying from two to seven per woman, making a total of 45 trials.
Thus, the experience with 3-MMC for menstrual cycle-induced symptoms reported here is from […] separate trials.

[3] = 12.5 mg then 25 mg with an interval of five hours (Ana)
[4] = one dose of 12.5 mg plus one dose of 25 mg, total 37.5 mg
[5] = one dose of 12.5 mg, individual trials
[6] = one dose of 25 mg, individual trials
[7] = two doses of 12.5 mg (Ana: interval of five hours; Jenny: equivalent to 25 mg)
[8] = two doses of 25 mg, one hour interval, total 50 mg (Katy)

CNC(C)C(=O)c1cccc(C)c1 (centres unmarked) [3-MMC, 3-methylmethcathinone]
time of peak serum concentrations ([1]; after oral administration): 5 to 10 min | apparent plasma half-life ([1]; after oral ingestion): approximately 0.8 hours | relief of symptoms at low dose (overview) ([2]; 12.5 mg): while not consistent, was often effective in providing relief of symptoms | Psychological reaction [2, 3]: experienced less emotional distress and felt much calmer | Side effects [2, 3]: an outbreak of acne | Response summary of the subject ([2]; 37.5 mg dose): more aware of themself, more concentrated, energetic, daring, calmer, but they would still be irritated or angry; also recorded: Rebecca felt actually very good | undesired side effects (overview) ([2]; 30-35 mg): some undesired side effects, such as tachycardia or temperature changes were occasionally more noticeable | effect when administered in anticipation of symptoms ([2]; administration prior to symptom onset): can significantly reduce the intensity as well as duration of many menstrual cycle induced symptoms | most commonly reported psychological and emotional effects ([2]; all subjects): enhanced their overall sense of well-being, increased energy levels, induced calmness and relaxation and heightened abilities of concentration; also recorded: a sense of relaxation and calm, often combined with heightened energy and ability to concentrate | most commonly reported side effects ([2]; all subjects, 12.5-50 mg): tachycardia, sensation of body temperature changes (usually feeling warmer or sometimes colder) and sweating | overall reported experience / relief of symptoms ([2]; eleven women, about 60 trials, doses 12.5 mg up to 50 mg): Ten out of the eleven reported a rather good to a very positive experience; also recorded: A desired positive effect was achieved with most trials; also recorded: provided relief from more than one of the reported menstrual cycle-induced symptoms | side effects, individual subject's summary over all their doses ([2]; individual subjects, all doses taken): they never perceived non-desired side-effects; also recorded: increased heartbeat and stomach pain on empty stomach; also recorded: noticed body temperature changes; also recorded: an unfamiliar tingling at the back of the tongue and throat; also recorded: They experienced no side effects or physical reactions worth mentioning; also recorded: had no physical reactions or undesired side effects with any of the doses; also recorded: some light and non-desirable effects such as body temperature changes | Psychological reaction [2, 4]: more willing to do things with an energetic flow that lasted up to four hours; also recorded: they could still sense anger and irritation, but now more in control; also recorded: They felt less irritated, less angry and more relaxed; also recorded: No perceived psychological effect; also recorded: felt very much calmer and much more relaxed than usual; also recorded: felt more awake, more energetic, more alive, therefore less tired and irritated | Side effects [2, 4]: Accelerated heartbeat, dizziness, feeling hot and sweating and Accelerated heartbeat, sweating and lack of appetite and None and Sweating and appetite loss | Psychological reaction [2, 5]: felt more emotionally stable after one hour, less oversensitive, less anxious and they had a slightly heightened mood and felt less depressed, not lethargic, down or exhausted anymore and They were no longer feeling down and exhausted and Exhaustion, feeling down, mood swings, feeling alone and helpless, over sensitive, powerlessness, forgetfulness, willing to cry and Experiencing less anxiety and nervousness, feeling calmer and not very focused, only a little and less irritable but not a major difference and more relaxed, less emotionally distressed and Calmer and more stable and less mood swings, less upset, less emotional and less tired and Ines felt calmer, less nervous and emotional and less distressed and tense and None (they felt no effect whatsoever with this small dose) and None and None, not better nor worse | Side effects [2, 5]: perceived no negative physical reactions or side effects and Stomach pain and none and none (apart from feeling warmer) and Tingling tongue, light somnolence and None | Psychological reaction [2, 6]: emotional distress, mood swings and anxiety decreased; also recorded: Ana felt calmer and more relaxed; also recorded: felt less angry and irritated; also recorded: they were more focused, having a heightened mood, they felt less helpless and more in control; also recorded: experienced no emotional distress or feeling down or any tension; also recorded: no longer feeling low, anxious or distressed; also recorded: feeling focused and motivated to study; also recorded: feeling focused and more concentrated; also recorded: they could focus and concentrate on their studies and was also more motivated; also recorded: they felt relaxed, calmer; also recorded: Fanny felt calmer and stable; also recorded: no longer feeling upset, felt a lot calmer; also recorded: Small, but transient improvement in their mood; also recorded: felt more relaxed, less tense; also recorded: feeling noticeably less upset and less sad; also recorded: Jenny felt better, less anxious, less unhappy; also recorded: felt better and more relaxed; also recorded: Her sadness faded away; also recorded: relief of the sadness, not down or stressed anymore; also recorded: experienced slightly less tension; also recorded: a bit calmer, after two hours very relaxed, not crying anymore | Side effects [2, 6]: none and None and stomach ache (on an empty stomach) and a higher heart rate and Cold hands and feet and drowsiness and some muscle pain or tension and Temporal slight stomach and muscle pain and Perceived body temperature changes, tingling sensation in the throat and Difficulty to go to sleep and somewhat tired and body temperature changes | interaction with paracetamol ([2]; one subject (Bea), 12.5 mg 3-MMC combined with paracetamol): did not experience any undesirable interactions with the 3-MMC; also recorded: without any noticeable substance interaction or undesired effect | side effects with repeated use ([2]; repeated use): side-effects tend to diminish over time with repeated use of 3-MMC | effect when administered after onset of symptoms ([2]; some subjects): 3-MMC was effective even when administered after the onset of menstrual cycle-induced symptoms | effect on somatic symptoms ([2]; some subjects (e.g. headache, physical pain)): administration of 3-MMC resulted in disappearance of somatic symptoms (e.g. headache); also recorded: can also produce a reduction in somatic symptoms (e.g. physical pain); also recorded: some of the subjects reported alleviation of somatic symptoms | perceived effect ([2]; subject Gertie, 40 mg in one intake): a bit too much | perceived benefit ([2]; subject Gertie, doses between 10 mg and 20 mg): They didn't perceive any benefit | perceived benefit ([2]; subject Gertie, doses between 20 and 30 mg): They felt positive effects | response and psychological effects ([2]; subject Gertie, one or two pills a couple of days before menstruation, usual dose 20-25 mg): feels less tense; also recorded: they are able to take decisions again; also recorded: a radical positive life change | response summary ([2]; subject Ines, alternating doses of 12.5 mg and 25 mg, seven occasions): The main effect was calming and relaxing; also recorded: no significant dose response has been observed | Psychological reaction [2, 7]: their emotional distress, feeling down, mood swings, helplessness and anxiety declined; also recorded: felt more energized, no longer down or sad | Side effects [2, 7]: none and None | Psychological reaction [2, 8]: no longer angry although they could still feel irritated; also recorded: They experienced reduced irritability and anger; also recorded: felt more energetic, less irritated and after two hours they were very calm | Side effects [2, 8]: Increased heartbeat, sweating and loss of appetite; also recorded: No noticeable side effects; also recorded: a brief period (one hour) of depression | cumulative positive effect of repeated administration ([2]; two or more consecutive doses within about 24 hours of each other): taking the pill two consecutive days made the effect of the second one last longer; also recorded: Possibly a cumulative effect; also recorded: a sort of a cumulative positive effect; also recorded: the positive effects of 3-MMC reportedly persisted; also recorded: positive effects persist
